Columns and labels:
C57/Bl/6 mice = experiment: COPD: acute cigarette smoke exposure, BALF; type: in vivo, mouse; details: 6 mg/kg intratracheal; FIG. 39
Experimental: C57/Bl/6 mice aged 6-8 weeks were exposed to room air or to the smoke of 5 cigarettes/day (Virginia brand with filter; tar 12 mg and nicotine 0.9 mg) for 3 consecutive days. For exposure to smoke, a special cage was used, which permits air exchange with the exterior or with the device that contains the cigarette only due to a mechanical fan, which also allows the smoke to be diluted with the external air (1:8) in order to simulate the situation of a smoker.
Starting on the fourth day, the mice were anaesthetized 30 minutes before exposure to the smoke and were administered 6 mg/kg of […] or vehicle by intratracheal injection. The mice were sacrificed one hour after the end of the treatment and a bronchoalveolar lavage was carried out.

naive murine CD4+ cells = experiment: Activation of naive murine CD4+ T cells in vitro (CFSE, cytofluorimeter, ELISA); type: cell-based, mouse
Description: The lymphocytes are cells of the immune defences that direct and amplify the response to attack. Their imbalance or malfunction is also at the root of autoimmune diseases. Successful increase in the ratio in favour of Treg cells can restore the equilibrium of the immune response and combat the resultant disorders. We analysed the activation of isolated naive murine CD4+ cells in the cytofluorimeter for the phenotype CD4+CD62L+CD44−CD25−. The cells were labelled with “5,6-carboxyfluorescein diacetate succinimyl ester” (CFSE) and we evaluated cellular proliferation in quantitative acquisitions with the cytofluorimeter based on the dilution of fluorescence, which depends on the proliferative activity of the cell.

mice = experiment: Visceral pain: acetic acid model; type: in vivo, mouse; details: 4 mg/kg intraperitoneally; FIG. 20
Experimental: We verified the effect of […] on a model of visceral pain. 30 mice were divided into two groups of 15: one group received […] 4 mg/kg intraperitoneally while the other group was treated with only the pharmaceutical vehicle. After the pre-treatment injection, 0.6% acetic acid was administered as a bolus injection 0.3 ml IP. The mice were put in individual observation chambers for assessing, after a period of 20 minutes, the number of contractions induced in each animal following injection of acetic acid. The count started 5 minutes after administration of acetic acid.

Lewis rats = experiment: Acute experimental autoimmune encephalomyelitis (MBP/CFA); type: in vivo, rat; details: for peak of neurologic damage (neuroclinical score 0-5): vehicle peak 3 (day 13)
Experimental: We investigated whether treatment with […], at the onset of the acute form of experimental autoimmune encephalitis (EAE), the murine model of human multiple sclerosis, could induce a functional recovery.
The motor and sensory deficits were classified according to previously assigned “neuronal” clinical scores.
Adult female Lewis rats (200-250 g) were immunized with an intradermal injection, in the hind limbs, of […] of myelin basic protein (MBP) dissolved in 50 microlitres of emulsified saline solution in 50 microlitres of complete Freund adjuvant (CFA).
Starting from the fifth day post-inoculation, the rats were treated daily with […] (0.1 or 1 mg/kg per os) or with the placebo (vehicle).
The animals were monitored daily until day 21 for clinical symptoms; the range of neuroclinical scores extended from 0 (no neurologic symptom) up to a maximum of 5 (complete paralysis of all legs or death).
Inoculation with the MBP/CFA emulsion led to a very evident loss of body weight; this was not changed by the treatment with Immuflam. The animals were divided into three groups of 15: group 1 Immuflam 0.1 mg/kg, group 2 Immuflam 1 mg/kg, group 3 vehicle. They were all treated daily per os from day 5 until sacrifice.

naive CD4 cells = experiment: Induction of T regulatory (Treg) cells from naive CD4 cells; type: cell-based, mouse; details: anti-CD3 stimulation 96 h, increasing concentrations; FIG. 22
Experimental: We evaluated the capacity of […] to induce in vitro the differentiation of naive CD4 cells into immunosuppressive Treg cells characterized by the phenotype CD4+CD25+ and by expression of the Foxp3 transcription factor. […] The naive CD4 cells were stimulated with anti-CD3 antibodies for 96 h in the presence of increasing concentrations of […].

[1] = test system: mice with the R117H CFTR(CF) mutation and wild-type (WT) mice; experiment: Cystic fibrosis: intratracheal LPS in R117H CFTR and WT mice; type: in vivo, mouse
Experimental: For the experiments, 32 mice were used with the R117H CFTR(CF) mutation, responsible for the onset of the inflammatory disorder, and 18 wild-type (WT) mice with a genetic background of the C57BL/6 type.
The trachea was then intubated with a MicroSprayer (PennCentury), capable of vaporizing the drug as aerosol at a concentration of 25 μl of […] 300 μM or of vehicle. The mice were weighed daily.
On day 4, all the mice received the inflammatory stimulus (1 μg of LPS) together with […] or vehicle; separate experiments were conducted, inducing only the inflammatory stimulus in the mice. About 24 hours after administration of LPS, the mice were sacrificed and samples of BALF were collected, from which the cellular component was isolated, and was analysed under the microscope for characterizing its leukocyte phenotype.

U937 cells = experiment: Secretion of pro-inflammatory cytokines by LPS-stimulated U937 cells (ELISA); type: cell-based, human; details: drug with LPS (12 hrs) or added after LPS for 2 or 6 hours, FIG. 1
Experimental: The production in vitro of MCP-1 (monocyte chemoattractant protein-1), TNF-α (tumour necrosis factor alpha), IL-6 (interleukin 6) was analysed. These cytokines induce the production of other cytokines that attract leukocytes to the site of inflammation, potentiating the immune response. This amplifies leukocyte “recruitment” at the site of inflammation, promoting “extravasation” of immune cells from the peripheral circulation.
The U937 cells were plated at a density of 250 000 cells/ml and left in quiescence for 24 hours.
The drug was added in fresh medium, simultaneously or after removal of LPS from the culture. The cells were kept in an incubator at 37° C. with supply of CO2 at 5%.
Analysis of the production of growth factors was performed on the cellular supernatants collected, by ELISA assay using commercial kits (Human TNF-α Quantikine ELISA Kit code DTA00C, R&D Systems assay. Human IL-6 Quantikine ELISA Kit code D6050, R&D Systems assay. Human CCL2/MCP-1 Quantikine ELISA Kit code DCP00, R&D Systems assay).

C=C(C=O)OC(C=O)n1cnc2c(N)ncnc21 (centres unmarked) [2-[1-(6-aminopurin-9-yl)-2-oxoethoxy]prop-2-enal]
immune cells and messengers of inflammation in BALF (C57/Bl/6 mice): slight finding of immune cells and of messengers of inflammation
number of proliferating cells (CFSE dilution) (naive murine CD4+ cells; 300 μM, FIG. 21): more than ten-fold reduction
secretion of interleukin-2 (naive murine CD4+ cells; ELISA in culture supernatant at 24 h): significantly reduces
expression of CD44 and shedding of L-selectin CD62L (cells CD44 positive, CD62L negative) (naive murine CD4+ cells; FIG. 21): significantly reduces
side scatter of the cells (parameter of activation of CD4 cells) (naive murine CD4+ cells; FIG. 21): reduced
visceral pain (number of contractions after acetic acid) (mice): effective in the treatment of visceral pain
clinical scores vs vehicle groups (Lewis rats; between day 12 and day 15, FIG. 4): significant differences
peak of neurologic damage (neuroclinical score 0-5) (Lewis rats; group 1, 0.1 mg/kg per os daily from day 5): 2.3
peak of neurologic damage (neuroclinical score 0-5) (Lewis rats; group 2, 1 mg/kg per os daily from day 5): 1.5
differentiation of naive CD4 cells into Treg cells (CD4+CD25+ Foxp3) (naive CD4 cells): induced the differentiation of Treg cells in a manner that was dependent on the dose used
reduction in concentrations of IL-1β, IL-6, TNFα and the murine analogue of IL-8 in BAL ([1]; CF and WT mice, FIGS. 42B and C): 56%-83%
decrease in neutrophil percentage relative to vehicle ([1]; CF mice, intratracheal LPS, 25 μl of 300 μM aerosol, p<0.001, FIG. 42A): 60%
decrease in the percentage of neutrophils ([1]; WT mice, intratracheal LPS, compared to 89% for vehicle, p<0.01): 47%
body weight ([1]; within first 24 hours, vehicle lost 4-8%, FIG. 41): no change in their body weight
cellular secretion of IL-6 (U937 cells): reduces the cellular secretion
cellular secretion of MCP-1 (U937 cells): reduces the cellular secretion
cellular secretion of TNF-α (U937 cells): reduces the cellular secretion

— patent US20160129005A1, “ADENINE DERIVATIVES HAVING IMMUNOMODULATING ANTI-INFLAMMATORY AND ANALGESIC ACTIVITY” (MEDESTEA RESEARCH & PRODUCTION S.p.A., priority 2011, published 2016)
